In patent US7432260B2, “Pyrimidine compounds” (Cyclacel Limted, priority 2002, dated 2008):

Assays:
CDK2/cyclin E = CDK2/cyclin E (Homo sapiens, UniProt P24941); assay: Kinase assay CDK2/cyclin E; format: biochemical; conditions: Table 2; read-out: Kinase Inhibition IC50 CDK2 cyclin E
Experimental: (§1) Kinase assays. […] This was achieved by measurement of incorporation of radioactive phosphate from ATP into appropriate polypeptide substrates. Recombinant protein kinases and kinase complexes were produced or obtained commercially. Assays were performed using 96-well plates and appropriate assay buffers (typically 25 mM β-glycerophosphate, 20 mM MOPS, 5 mM EGTA, 1 mM DTT, 1 mM […], pH 7.4), into which were added 2-4 μg of active enzyme with appropriate substrates. The reactions were initiated by addition of Mg/ATP mix (15 mM MgCl2+100 μM ATP with 30-50 kBq per well of [γ-^32P]-ATP) and mixtures incubated as required at 30° C. Reactions were stopped on ice, followed by filtration through p81 filterplates or GF/C filterplates (Whatman Polyfiltronics, Kent, UK). After washing 3 times with 75 mM aq orthophosphoric acid, plates were dried, scintillant added and incorporated radioactivity measured in a scintillation counter (TopCount, Packard Instruments, Pangbourne, Berks, UK). Compounds for kinase assay were made-up as 10 mM stocks in DMSO and diluted into 10% DMSO inrassay buffer.

HT29 = assay: 72-h MTT cytotoxicity assay HT29; format: cell-based; conditions: Homo sapiens, HT-29, 72 h, Table 4
Experimental: (§2) MTT cytotoxicity assay. […] Standard 72-h MTT (thiazolyl blue; 3-[4,5-dimethylthiazol-2-yl]-2,5-diphenyltetrazolium bromide) assays were performed (Haselsberger, K.; Peterson, D. C.; Thomas, D. G.; Darling, J. L. Anti Cancer Drugs 1996, 7, 331-8; Loveland, B. E.; Johns, T. G.; Mackay, I. R.; Vaillant, F.; Wang, Z. X.; Hertzog, P. J. Biochemistry International 1992, 27, 501-10). In short: cells were seeded into 96-well plates according to doubling time and incubated overnight at 37° C. Test compounds were made up in DMSO and a 1/3 dilution series prepared in 100 μL cell media, added to cells (in triplicates) and incubated for 72 ho at 37° C. MTT was made up as a stock of 5 mg/mL in cell media and filter-sterilised. Media was removed from cells followed by a wash with 200 μL PBS.
(§3) MTT solution was then added at 20 μL per well and incubated in the dark at 37° C. for 4 h. MTT solution was removed and cells again washed with 200 μL PBS. MTT dye was solubilised with 200 μL per well of DMSO with agitation.

Saos-2 = assay: 72-h MTT cytotoxicity assay Saos-2; format: cell-based; conditions: Homo sapiens, SAOS-2, 72 h, Table 4
Experimental: as §2, §3

CDK1/cyclin B = CDK1/cyclin B (Homo sapiens, UniProt P06493); assay: Kinase assay CDK1/cyclin B; format: biochemical; conditions: Table 2; read-out: Kinase Inhibition IC50 CDK1 cyclin B
Sequence of CDK1/cyclin B (P06493 whole entry): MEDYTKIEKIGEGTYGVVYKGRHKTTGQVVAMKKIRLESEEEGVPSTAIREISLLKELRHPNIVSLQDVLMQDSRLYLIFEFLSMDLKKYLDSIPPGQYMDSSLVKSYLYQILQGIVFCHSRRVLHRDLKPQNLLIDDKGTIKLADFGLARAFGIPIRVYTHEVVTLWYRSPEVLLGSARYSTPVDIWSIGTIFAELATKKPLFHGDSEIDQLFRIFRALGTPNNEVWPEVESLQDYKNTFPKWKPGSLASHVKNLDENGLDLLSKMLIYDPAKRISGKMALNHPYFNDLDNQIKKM
Sequence of CDK1/cyclin B (P14635 whole entry partner): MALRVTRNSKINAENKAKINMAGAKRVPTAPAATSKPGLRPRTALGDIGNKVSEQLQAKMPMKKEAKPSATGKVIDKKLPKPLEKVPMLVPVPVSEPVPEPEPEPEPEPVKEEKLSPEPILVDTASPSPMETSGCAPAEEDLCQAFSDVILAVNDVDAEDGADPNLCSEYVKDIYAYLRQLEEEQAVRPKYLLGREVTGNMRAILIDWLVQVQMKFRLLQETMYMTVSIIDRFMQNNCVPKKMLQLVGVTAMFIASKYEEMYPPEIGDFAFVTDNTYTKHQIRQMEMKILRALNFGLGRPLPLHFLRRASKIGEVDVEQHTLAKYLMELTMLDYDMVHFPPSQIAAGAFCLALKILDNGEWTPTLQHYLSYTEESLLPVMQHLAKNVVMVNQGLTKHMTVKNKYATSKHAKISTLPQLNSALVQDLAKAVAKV
Experimental: as §1

CDK7/cyclin H = CDK7/cyclin H (Homo sapiens, UniProt P50613); assay: CDK7 assay; format: biochemical; conditions: Table 2; read-out: Kinase Inhibition IC50 CDK7 cyclin H
Sequence of CDK7/cyclin H (P50613 whole entry): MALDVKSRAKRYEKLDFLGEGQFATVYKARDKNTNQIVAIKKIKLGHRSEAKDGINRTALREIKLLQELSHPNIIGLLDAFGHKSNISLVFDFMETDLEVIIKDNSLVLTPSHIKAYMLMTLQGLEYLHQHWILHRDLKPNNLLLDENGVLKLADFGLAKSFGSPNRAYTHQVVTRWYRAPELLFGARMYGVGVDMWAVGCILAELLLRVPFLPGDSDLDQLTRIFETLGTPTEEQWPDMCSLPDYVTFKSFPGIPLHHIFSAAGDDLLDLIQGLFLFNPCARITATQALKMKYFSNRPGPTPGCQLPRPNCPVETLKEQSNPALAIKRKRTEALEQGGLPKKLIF
Experimental: as §1
CDK 7 and 9 assays. CTD peptide substrate (biotinyl-Ahx-(Tyr-Ser-Pro-Thr-Ser-Pro-Ser)4-NH2; 1-2 mg/mL) and recombinant human CDK7/cyclin H, CDK9/cyclin T1, or CDK9/cyclin K (0.5-2 μg) were incubated for 45 min at 30° C. in the presence of varying amounts of test compound in 20 mM MOPS pH 7.2, 25 mM β-glycerophosphate, 5 mM EGTA, 1 mM DTT, 1 mM sodium vanadate, 15 mM MgCl2, and 100 μM ATP (containing a trace amount of ^32PγATP) in a total volume of 25 μL in a 96-well microtiter plate. The reaction was stopped by placing the plate on ice for 2 min. Avidin (50 μg) was added to each well, and the plate was incubated at room temp for 30 min. The samples were transferred to a 96-well P81 filter plate, and washed (4×200 μL per well) with 75 mM phosphoric acid. Microscint 40 scintillation liquid (50 μL) was added to each well, and the amount of ^32P incorporation for each sample was measured using a Packard Topcount microplate scintillation counter.

A549 = assay: 72-h MTT cytotoxicity assay A549; format: cell-based; conditions: Homo sapiens, A549, 72 h, Table 4
Experimental: as §2, §3

CDK4/cyclin D1 = CDK4/cyclin D1 (Homo sapiens, UniProt P11802); assay: Kinase assay CDK4/cyclin D1; format: biochemical; conditions: Table 2; read-out: Kinase Inhibition IC50 CDK4 cyclin D1
Sequence of CDK4/cyclin D1 (P11802 whole entry): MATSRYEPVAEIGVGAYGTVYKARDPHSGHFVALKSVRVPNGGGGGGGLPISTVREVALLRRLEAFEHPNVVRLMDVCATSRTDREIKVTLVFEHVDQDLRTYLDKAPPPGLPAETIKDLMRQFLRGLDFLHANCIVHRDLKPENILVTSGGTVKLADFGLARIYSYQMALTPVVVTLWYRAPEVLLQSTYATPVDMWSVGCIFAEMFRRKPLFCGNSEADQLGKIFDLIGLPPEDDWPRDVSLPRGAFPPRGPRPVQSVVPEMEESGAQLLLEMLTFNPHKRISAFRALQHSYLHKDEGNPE
Sequence of CDK4/cyclin D1 (P24385 whole entry partner): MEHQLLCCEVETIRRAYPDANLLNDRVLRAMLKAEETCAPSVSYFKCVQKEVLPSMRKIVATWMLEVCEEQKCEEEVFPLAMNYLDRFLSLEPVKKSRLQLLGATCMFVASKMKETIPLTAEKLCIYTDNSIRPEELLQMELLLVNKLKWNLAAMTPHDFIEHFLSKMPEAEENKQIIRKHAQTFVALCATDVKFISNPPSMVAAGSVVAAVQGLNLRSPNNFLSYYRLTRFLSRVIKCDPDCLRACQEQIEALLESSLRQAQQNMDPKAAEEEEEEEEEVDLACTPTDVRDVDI
Experimental: as §1

CDK2/cyclin A = CDK2/cyclin A (Homo sapiens, UniProt P24941); assay: Kinase assay CDK2/cyclin A; format: biochemical; conditions: Table 2; read-out: Kinase Inhibition IC50 CDK2 cyclin A
Experimental: as §1

| IC50 (CDK2/cyclin E) [nM] | IC50 (CDK1/cyclin B) [nM] | IC50 (CDK7/cyclin H) [nM] | IC50 (CDK4/cyclin D1) [nM] | IC50 (CDK2/cyclin A) [nM] | SMILES | IC50 (HT29) [nM] | IC50 (Saos-2) [nM] | IC50 (A549) [nM] |
| --- | --- | --- | --- | --- | --- | --- | --- | --- |
| 1700 | 11000 | 9600 | 400 | 2900 | Cc1nc(C)c(-c2ccnc(Nc3ccc(NC(=O)CN4CCOCC4)cc3)n2)s1 [Compound 51, N-{4-[4-(2,4-Dimethyl-thiazol-5-yl)-pyrimidin-2-ylamino]-phenyl}-2-morpholin-4-yl-acetamide] | 1400 | 1100 | 1900 |
| 2100 | 12000 | 3500 | 2600 | 1700 | CC(=O)N(C)c1ccc(Nc2nccc(-c3sc(C)nc3C)n2)cc1 [Compound 48, N-{4-[4-(2,4-Dimethyl-thiazol-5-yl)-pyrimidin-2-ylamino]-phenyl}-N-methyl-acetamide] | 2600 | 3800 | 3000 |
| – | 980 | – | 7 | – | CNc1nc(C)c(-c2ccnc(Nc3ccc(N4CCNCC4)cc3)n2)s1 [Compound 62, [4-(4-Methyl-2-methylamino-thiazol-5-yl)-pyrimidin-2-yl]-(4-piperazin-l-yl-phenyl)-amine] | 180 | 260 | 190 |
| 300 | – | – | 5600 | – | Cc1nc(NS(C)(=O)=O)sc1-c1ccnc(Nc2ccc(F)cc2)n1 [Compound 31, N-{5-[2-(4-Fluoro-phenylamino)-pyrimidin-4-yl]-4-methyl-thiazol-2-yl}-methanesulfonamide] | 4100 | 810 | 2000 |
| 110 | 120 | – | 630 | 100 | CNc1nc(C)c(-c2ccnc(Nc3cccc(CO)c3)n2)s1 [Compound 91, {3-[4-(4-Methyl-2-methylamino-thiazol-5-yl)-pyrimidin-2-ylamino]-phenyl}-methanol] | – | – | – |
| 28 | 48 | 11000 | 3800 | 1 | Cc1nc(C)c(-c2ccnc(Nc3ccc(S(C)(=O)=O)cc3)n2)s1 [Compound 85, [4-(2,4-Dimethyl-thiazol-5-yl)-pyrimidin-2-yl]-(4-methanesulfonyl-phenyl)-amine] | – | – | – |
| – | – | – | – | – | Cc1nc(NC(=O)CCl)sc1-c1ccnc(Nc2ccc(F)cc2)n1 [Compound 33, 2-Chloro-N-{5-[2-(4-fluoro-phenylamino)-pyrimidin-4-yl]-4-methyl-thiazol-2-yl}-acetamide] | 110 | 300 | 330 |
| 2600 | 36000 | – | 29000 | 12000 | Cc1nc(NC(=O)CN2CCN(C(=O)OC(C)(C)C)CC2)sc1-c1ccnc(Nc2cccc([N+](=O)[O-])c2)n1 [Compound 28, 4-({4-Methyl-5-[2-(3-nitro-phenylamino)-pyrimidin-4-yl]-thiazol-2-ylcarbamoyl}-methyl)-piperazine-1-carboxylic acid tert-butyl ester] | 6740 | 15000 | 9900 |
| – | 51000 | – | 11000 | – | Cc1nc(C)c(-c2ccnc(Nc3ccc(N4CCN(S(C)(=O)=O)CC4)cc3)n2)s1 [Compound 10, [4-(2,4-Dimethyl-thiazol-5-yl)-pyrimidin-2-yl]-[4-(4-methanesulfonyl-piperazin-1-yl)-phenyl]-amine] | 6400 | – | 11000 |
| 210 | 2000 | – | – | – | Cc1nc(NC(=O)[C@@H](N)[C@H](C)O)sc1-c1ccnc(Nc2cccc([N+](=O)[O-])c2)n1 [Compound 17, (2S,3S)-2-Amino-3-hydroxy-N-{4-methyl-5-[2-(3-nitro-phenylamino)-pyrimidin-4-yl]-thiazol-2-yl}-butyramide] | 1200 | 1200 | 1100 |
